The source of these data is patent EP1369120B1 (priority 2002, dated 2003).

The subject of experiment [1] is HCV sub-genomic replicons (Ava.5). As to the kind of experiment: microbe, parasite or virus in culture. It is filed as cell-based, hepatitis C virus.
The subject of experiment [2] is Huh-7 cells containing HCV sub-genomic replicons (Ava.5). The experiment can be described thus: cells. It is filed as cell-based.
Experiment [3] deals with HCV. It is filed as cell-based. The conditions noted are these: 300 nM As2O3 (data not shown).
[4] abbreviates: huh-7 hcv replicon cells, 1440 min, 1 µM.
Where [5] appears, read: huh-7 hcv replicon cells, 4320 min, 0.01 µM.
Setting [6] is: huh-7 hcv replicon cells, 4320 min, 0.05 µM.
[7] abbreviates: huh-7 hcv replicon cells, 4320 min, 0.1 µM.
[8] abbreviates: huh-7 hcv replicon cells, 4320 min, 1 µM.

Several values for one entry are separate records, joined by “and”; a condition that tells them apart may be missing. Equal entries are not always repeated. Where two headings read alike, the source gives them in different places.

For “Potassium antimony tartrate [Potassium antimony tartrate (PAT)]”, the “inhibition of HCV replication” value in experiment [1] (5 µM) was 75 % inhibition of HCV replication at 5 µM of PAT treatment. In addition, the IC50 in experiment [2] (read-out: IC50) is 35000 nM.

As to arsenic trioxide [As2O3], the “inhibition of replication of HCV RNA” value in experiment [1] is “dose-dependent manner”. Moreover, in experiment [1] (setting [4]), the “negative strand of HCV RNA detected (relative copy number)” value turned out to be 14.1%. For the same compound, the “positive strand of HCV RNA detected (relative copy number)” value in experiment [1] (setting [4]) is reported as 15.6%. Also, the “relative HCV RNA level (negative strand)” value came to 135.3% in experiment [1] (setting [5]), 74.3% in experiment [1] (setting [6]) and 67.5% in experiment [1] (setting [7]). In addition, the entries for the “relative HCV RNA level (positive strand)” value in experiment [1] (setting [5]), in experiment [1] (setting [6]) and in experiment [1] (setting [7]) were 95.1%, 70% and 57.5%, respectively. Moreover, the “negative strand HCV RNA detected (relative copy number)” value in experiment [1] (setting [8]) is given as 2.6%. In experiment [1] (setting [8]), the “positive strand RNA detected (relative copy number)” value was found to be 6.1%. For the same compound, in experiment [1] (read-out: EC50), the EC50 (in general, the concentration that produces a half-maximal response) was 260 nM and 190 nM and 270 nM and 160 nM and 200 nM. For the same compound, the IC50 in experiment [2] (read-out: IC50) is 6000 nM; in experiment [2] (read-out: ICso (concentration which causes 50% cell death)), 8500 nM and 4800 nM. For the same compound, the “inhibition of the replication” value in experiment [3] is listed as “completely”.

In experiment [1] (Hepatitis C virus, Ava5, 24 h), `O=[As]O` [Sodium arsenite] registered a concentration giving a half-maximal response (EC50) of 250 nM. Moreover, the IC50 in experiment [2] (Hepatitis C virus, Ava5, 24 h) was 10000 nM.
